Measured values from patent US11878965B2, “Inhibitors of peptidylarginine deiminases” (Gilead Sciences, Inc., priority 2020, dated 2024).

Molecular target: human PAD4 (Homo sapiens (Human), UniProt Q9UM07)
Assay: In Vitro PAD4 BAEE Biochemical Assay
Conditions: human PAD4, BAEE substrate; 5 nM PAD4, 2 mM calcium chloride, 3 mM BAEE; geometric mean of multiple experiments
In short: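 Deimination of BAEE substrate (3 mM) measured as ammonia via o-phthalaldehyde–DTT isoindole fluorescence, 405/535 nm. Tag-free bacterially expressed human PAD4 at 5 nM with 2 mM calcium chloride, pH 7.6 MOPS buffer, 30 min compound preincubation then 2 h reaction, both at 25 °C.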

Sequence of human PAD4 (Q9UM07 2-663): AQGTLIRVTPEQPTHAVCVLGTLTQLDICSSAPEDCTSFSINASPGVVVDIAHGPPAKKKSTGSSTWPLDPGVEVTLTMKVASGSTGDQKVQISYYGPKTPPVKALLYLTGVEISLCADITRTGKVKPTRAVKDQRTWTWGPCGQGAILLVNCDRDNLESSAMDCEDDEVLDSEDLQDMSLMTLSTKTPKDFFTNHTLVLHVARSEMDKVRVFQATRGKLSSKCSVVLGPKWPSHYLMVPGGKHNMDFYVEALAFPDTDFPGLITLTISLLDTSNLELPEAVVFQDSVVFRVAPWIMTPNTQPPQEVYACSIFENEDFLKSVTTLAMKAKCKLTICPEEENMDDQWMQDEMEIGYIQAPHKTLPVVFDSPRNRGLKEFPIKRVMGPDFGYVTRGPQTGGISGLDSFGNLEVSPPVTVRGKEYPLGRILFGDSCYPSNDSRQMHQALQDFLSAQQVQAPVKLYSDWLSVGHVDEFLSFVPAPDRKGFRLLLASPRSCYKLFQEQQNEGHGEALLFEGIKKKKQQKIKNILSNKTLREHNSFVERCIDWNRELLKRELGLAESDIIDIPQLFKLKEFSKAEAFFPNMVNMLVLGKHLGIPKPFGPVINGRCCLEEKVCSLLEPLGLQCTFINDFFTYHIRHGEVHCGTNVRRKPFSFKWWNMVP

Compound | IC50 [nM]
COc1cc(C(=O)N2C[C@H](N)CC[C@@H]2C)cc2nc(-c3cc4ccc(N(C(F)F)S(C)(=O)=O)nc4n3CC3CC3)n(C34CC(C3)C4)c12 [Example 48, N-(2-(5-((2S,5R)-5-amino-2-methylpiperidine-1-carbonyl)-1-(bicyclo[1.1.1]pentan-1-yl)-7-methoxy-1H-benzo[d]imidazol-2-yl)-1-(cyclopropylmethyl)-1H-pyrrolo[2,3-b]pyridin-6-yl)-N-(difluoromethyl) methane sulfonamide] | 2130
COc1cc(C(=O)N2[C@@H]3CC[C@@H](N)[C@H]2CC3)cc2nc(-c3cc4ccc(N(C(F)F)S(C)(=O)=O)nc4n3CC3CC3)n(C3CC3)c12 [Example 50, N-(2-(5-((1R,2R,5R)-2-amino-8-azabicyclo[3.2.1]octane-8-carbonyl)-1-cyclopropyl-7-methoxy-1H-benzo[d]imidazol-2-yl)-1-(cyclopropylmethyl)-1H-pyrrolo [2,3-b]pyridin-6-yl)-N-(difluoromethyl) methanesulfonamide] | 145
COc1cc(C(=O)N2CC[C@@H](O)[C@@H](N)C2)cc2nc(-c3cc4ccc(N(C(F)F)S(C)(=O)=O)nc4n3CC3CC3)n(C)c12 [Example 51, N-(2-(5-((3S,4R)-3-amino-4-hydroxypiperidine-1-carbonyl)-7-methoxy-1-methyl-1H-benzo[d]imidazol-2-yl)-1-(cyclopropylmethyl)-1H-pyrrolo [2,3-b]pyridin-6-yl)-N-(difluoromethyl) methanesulfonamide] | 141
COc1cc(C(=O)N2CCCC(C)(N)C2)cc2nc(-c3cc4ccc(N(C(F)F)S(C)(=O)=O)nc4n3CC3CC3)n(C)c12 (stereo not drawn) [Example 52, N-(2-(5-(3-amino-3-methylpiperidine-1-carbonyl)-7-methoxy-1-methyl-1H-benzo[d]imidazol-2-yl)-1-(cyclopropylmethyl)-1H-pyrrolo [2,3-b]pyridin-6-yl)-N-(difluoromethyl) methanesulfonamide] | 12700
CS(=O)(=O)N(c1ccc2cc(-c3nc4cc(C(=O)N5CCC[C@@H](N)C5)ccc4n3C3CC3)n(CC3CC3)c2n1)C(F)F [Example 54, (R)-N-(2-(5-(3-aminopiperidine-1-carbonyl)-1-cyclopropyl-1H-benzo[d]imidazol-2-yl)-1-(cyclopropylmethyl)-1H-pyrrolo[2,3-b]pyridin-6-yl)-N-(difluoromethyl) methanesulfonamide] | 37.4
CS(=O)(=O)N(c1ccc2cc(-c3nc4cc(C(=O)N5[C@@H]6CC[C@@H](N)[C@H]5CC6)ccc4n3C3CC3)n(CC3CC3)c2n1)C(F)F [Example 56, N-(2-(5-((1R,2R,5R)-2-amino-8-azabicyclo[3.2.1]octane-8-carbonyl)-1-cyclopropyl-1H-benzo[d]imidazol-2-yl)-1-(cyclopropylmethyl)-1H-pyrrolo[2,3-b]pyridin-6-yl)-N-(difluoromethyl) methanesulfonamide] | 36.2
Cc1cc2c(cc1C(=O)N1C[C@H]3CC[C@@H]1[C@@H]3N)nc(-c1cc3ccc(N(C(F)F)S(C)(=O)=O)nc3n1CC1CC1)n2C [Example 57, N-(2-(5-((1R,4R,7R)-7-amino-2-azabicyclo[2.2.1]heptane-2-carbonyl)-1,6-dimethyl-1H-benzo[d]imidazol-2-yl)-1-(cyclopropylmethyl)-1H-pyrrolo[2,3-b]pyridin-6-yl)-N-(difluoromethyl) methanesulfonamide] | 11200
COc1cc(C(=O)N2C[C@@H]3CC[C@@](N)(C3)C2)cc2nc(-c3cc4ccc(N(C(F)F)S(C)(=O)=O)nc4n3CC3CC3)n(C)c12 [Example 61, N-(2-(5-((1R,5R)-1-amino-3-azabicyclo[3.2.1]octane-3-carbonyl)-7-methoxy-1-methyl-1H-benzo[d]imidazol-2-yl)-1-(cyclopropylmethyl)-1H-pyrrolo[2,3-b]pyridin-6-yl)-N-(difluoromethyl) methanesulfonamide] | 36800
COc1cc(C(=O)N2[C@H]3CC[C@@H]2[C@H](N)C3)cc2nc(-c3cc4ccc(N(C(F)F)S(C)(=O)=O)nc4n3CC3CC3)n(C3CC3)c12 [Example 64, N-(2-(5-((1R,2R,4S)-2-amino-7-azabicyclo[2.2.1]heptane-7-carbonyl)-1-cyclopropyl-7-methoxy-1H-benzo[d]imidazol-2-yl)-1-(cyclopropylmethyl)-1H-pyrrolo [2,3-b]pyridin-6-yl)-N-(difluoromethyl) methanesulfonamide] | 128
CS(=O)(=O)N(c1ccc2cc(-c3nc4cc(C(=O)N5[C@H]6CC[C@@H]5[C@H](N)C6)ccc4n3C3CC3)n(CC3CC3)c2n1)C(F)F [Example 65, N-(2-(5-((1R,2R,4S)-2-amino-7-azabicyclo[2.2.1]heptane-7-carbonyl)-1-cyclopropyl-1H-benzo[d]imidazol-2-yl)-1-(cyclopropylmethyl)-1H-pyrrolo[2,3-b]pyridin-6-yl)-N-(difluoromethyl) methanesulfonamide] | 47
COc1cc(C(=O)N2CC[C@@H]3OCCN[C@@H]3C2)cc2nc(-c3cc4ccc(N(C(F)F)S(C)(=O)=O)nc4n3CC3CC3)n(C3CC3)c12 [Example 69, N-(2-(1-cyclopropyl-7-methoxy-5-((4aR,8aS)-octahydro-2H-pyrido[4,3-b][1,4]oxazine-6-carbonyl)-1H-benzo[d]imidazol-2-yl)-1-(cyclopropylmethyl)-1H-pyrrolo[2,3-b]pyridin-6-yl)-N-(difluoromethyl) methanesulfonamide] | 50000

Further molecules by falling IC50, results first:

IC50 [nM] | Compound
50000 | COc1cc(C(=O)N2CCCC3(CCCCN3)C2)cc2nc(-c3cc4ccc(N(C(F)F)S(C)(=O)=O)nc4n3CC3CC3)n(C)c12 (stereo not drawn) [Example 68, N-(1-(cyclopropylmethyl)-2-(7-methoxy-1-methyl-5-(1,8-diazaspiro[5.5]undecane-8-carbonyl)-1H-benzo[d]imidazol-2-yl)-1H-pyrrolo[2,3-b]pyridin-6-yl)-N-(difluoromethyl) methanesulfonamide]
39400 | COc1cc(C(=O)N[C@H]2CNC[C@@H]2NC(C)=O)cc2nc(-c3cc4ccc(N(C(F)F)S(C)(=O)=O)nc4n3CC3CC3)n(C)c12 [Example 70, N-((3S,4S)-4-acetamidopyrrolidin-3-yl)-2-(1-(cyclopropylmethyl)-6-((N-(difluoromethyl)methyl)sulfonamido)-1H-pyrrolo[2,3-b]pyridin-2-yl)-7-methoxy-1-methyl-1H-benzo[d]imidazole-5-carboxamide]
21700 | COc1cc(C(=O)N2CCC3(CCC3N)C2)cc2nc(-c3cc4ccc(N(C(F)F)S(C)(=O)=O)nc4n3CC3CC3)n(C)c12 (stereo not drawn) [Example 66, N-(2-(5-(1-amino-6-azaspiro[3.4]octane-6-carbonyl)-7-methoxy-1-methyl-1H-benzo[d]imidazol-2-yl)-1-(cyclopropylmethyl)-1H-pyrrolo[2,3-b]pyridin-6-yl)-N-(difluoromethyl) methanesulfonamide]
9410 | Cc1cc2c(cc1C(=O)N1C[C@H]3CC[C@@H]1[C@@H]3N)nc(-c1cc3ccc(N(C(F)F)S(C)(=O)=O)nc3n1CC1CC1)n2C1CC1 [Example 59, N-(2-(5-((1R,4R,7R)-7-amino-2-azabicyclo[2.2.1]heptane-2-carbonyl)-1-cyclopropyl-6-methyl-1H-benzo[d]imidazol-2-yl)-1-(cyclopropylmethyl)-1H-pyrrolo [2,3-b]pyridin-6-yl)-N-(difluoromethyl) methanesulfonamide]
5080 | COc1cc(C(=O)N2CC3(CCNC3)C2)cc2nc(-c3cc4ccc(N(C(F)F)S(C)(=O)=O)nc4n3CC3CC3)n(C)c12 [Example 67, N-(1-(cyclopropylmethyl)-2-(7-methoxy-1-methyl-5-(2,6-diazaspiro[3.4]octane-2-carbonyl)-1H-benzo[d]imidazol-2-yl)-1H-pyrrolo[2,3-b]pyridin-6-yl)-N-(difluoromethyl) methanesulfonamide]
4340 | Cc1cc2c(cc1C(=O)N1CCC[C@@H](N)C1)nc(-c1cc3ccc(N(C(F)F)S(C)(=O)=O)nc3n1CC1CC1)n2C [Example 58, (R)-N-(2-(5-(3-aminopiperidine-1-carbonyl)-1,6-dimethyl-1H-benzo[d]imidazol-2-yl)-1-(cyclopropylmethyl)-1H-pyrrolo [2,3-b]pyridin-6-yl)-N-(difluoromethyl) methanesulfonamide]
2210 | Cc1cc2c(cc1C(=O)N1CCC[C@@H](N)C1)nc(-c1cc3ccc(N(C(F)F)S(C)(=O)=O)nc3n1CC1CC1)n2C1CC1 [Example 60, (R)-N-(2-(5-(3-aminopiperidine-1-carbonyl)-1-cyclopropyl-6-methyl-1H-benzo[d]imidazol-2-yl)-1-(cyclopropylmethyl)-1H-pyrrolo[2,3-b]pyridin-6-yl)-N-(difluoromethyl) methanesulfonamide]
1730 | COc1cc(C(=O)N2CCC[C@@H](N)[C@H]2C)cc2nc(-c3cc4ccc(N(C)S(C)(=O)=O)nc4n3C3CC3)n(C)c12 [Example 47, N-(2-(5-((2R,3R)-3-amino-2-methylpiperidine-1-carbonyl)-7-methoxy-1-methyl-1H-benzo[d]imidazol-2-yl)-1-cyclopropyl-1H-pyrrolo[2,3-b]pyridin-6-yl)-N-methylmethanesulfonamide]
487 | COc1cc(C(=O)N2CCC[C@@H](N)[C@H]2C)cc2nc(-c3cc4ccc(N(C)S(C)(=O)=O)nc4n3C3CC3)n(CC3CC3)c12 [Example 49, N-(2-(5-((2R,3R)-3-amino-2-methylpiperidine-1-carbonyl)-1-(cyclopropylmethyl)-7-methoxy-1H-benzo[d]imidazol-2-yl)-1-cyclopropyl-1H-pyrrolo[2,3-b]pyridin-6-yl)-N-methylmethanesulfonamide]
89.6 | CS(=O)(=O)N(c1ccc2cc(-c3nc4cc(C(=O)N5C[C@H]6CC[C@@H]5[C@@H]6N)ccc4n3C3CC3)n(CC3CC3)c2n1)C(F)F [Example 55, N-(2-(5-((1R,4R,7R)-7-amino-2-azabicyclo[2.2.1]heptane-2-carbonyl)-1-cyclopropyl-1H-benzo[d]imidazol-2-yl)-1-(cyclopropylmethyl)-1H-pyrrolo[2,3-b]pyridin-6-yl)-N-(difluoromethyl) methanesulfonamide]
